Several values for one entry are separate records, joined by “and”; a condition that tells them apart may be missing. Equal values may be shown once.
System: human erythrocytes
Assay: Untargeted metabolomics and 13C-glucose tracing of enolase inhibitor treated erythrocytes
Assay type: cell-based
Details: 6h
Method: Freshly collected erythrocytes were washed, resuspended to 10% hematocrit in buffer [25mM HEPES (pH 7.4), 120mM NaCl, 5.4mM KCl, 1.8mM CaCl2, and 1mM NaH2PO4], incubated for 1 hour at 37°C, then centrifuged at 2000xg for 5 minutes at 4°C, resuspended in fresh wash buffer to 30-40% hematocrit, and split into 210µL aliquots of packed erythrocytes. […] All samples were incubated at 37°C shaking at 500 RPM. Triplicate samples of supernatants and packed erythrocytes were collected at 0, 0.5, 1, and 6-hour intervals and snap-frozen in liquid N2.
RBC and media samples were extracted at 1:10 and 1:20 dilutions, respectively, in 5:3:2 MeOH : MeCN:H2O v/v/v, and supernatants analyzed on a Thermo Vanquish UHPLC coupled to a Thermo Q Exactive mass spectrometer, as extensively described ([Nemkov et al., 2015]; [Nemkov et al., 2017]). The extraction buffer was supplemented with 40uM 3-^13C lactate to allow absolute quantification of lactate isotopologues, including lactate generated via glycolysis ([1,2,3-^13C3] enriched) vs. the pentose phosphate pathway ([2,3-^13C2] enriched), as described ([Reisz et al., 2016]). Metabolite assignments, peak area integration and isotopologues distributions were determined using Maven (Princeton University) ([Nemkov et al., 2015]; [Nemkov et al., 2017]).
Data were auto-scaled and normalized to zero-hour time points. Metabolites were removed from the dataset if greater than 50% of the samples contained missing values or the relative standard deviation among replicates exceeded 25%. Additionally, data was filtered using the interquartile range to reduce near-constant values from the experiment by 5%.
A principal component analysis of preprocessed data was plotted with the 95% confidence interval minimum volume enclosing ellipsoid for each respective group (MetaboAnalyst, cluster, plotly). A two-way repeated measures analysis of variance (ANOVA) was performed with multiple comparisons corrected for using a false discovery rate p-value cutoff of 0.05. Metabolite-Pathway analysis was performed using the R package of MetaboAnalyst, as previously described ([Xia and Wishart, 2010]). Metabolite-Protein nodal analysis was performed using omicsnet.ca and as previously described ([Zhou and Xia, 2018]).

[1] = treated erythrocytes, one value per replicate sample, polarity +
[2] = treated erythrocytes, one value per replicate sample, polarity -
[3] = treated erythrocytes, replicate samples

CC(C)(C)C(=O)OCOP(=O)(OCOC(=O)C(C)(C)C)C1CCCN(O)C1=O (stereo not shown) [POMHEX]
AMP level (metabolomics signal) (replicate samples): 3.72E+05 and 4.97E+05 and 4.88E+05
ATP level (metabolomics signal) (replicate samples): 1.06E+05 and 4.51E+04 and 2.86E+04
Adenine level (metabolomics signal) (replicate samples): 1.10E+05 and 1.13E+05 and 1.03E+05
Cytosine level (metabolomics signal) (replicate samples): 0.00E+00
L-alanine level (metabolomics signal) (replicate samples): 7.74E+06 and 6.77E+06 and 7.99E+06
L-arginine level (metabolomics signal) (replicate samples): 4.96E+06 and 6.71E+06 and 3.72E+06
L-asparagine level (metabolomics signal) (replicate samples): 5.50E+06 and 5.88E+06 and 6.25E+06
L-aspartate level (metabolomics signal) (replicate samples): 1.08E+07 and 1.19E+07 and 1.12E+07
L-cysteine level (metabolomics signal) (replicate samples): 4.98E+05 and 5.97E+05 and 1.05E+06
L-glutamate level (metabolomics signal) (replicate samples): 5.99E+06 and 6.14E+06 and 6.66E+06
L-glutamine level (metabolomics signal) (replicate samples): 6.37E+07 and 6.26E+07 and 6.35E+07
L-histidine level (metabolomics signal) (replicate samples): 1.60E+06 and 1.47E+06 and 1.87E+06
L-isoleucine level (metabolomics signal) (replicate samples): 1.28E+07 and 1.42E+07 and 1.14E+07
L-leucine level (metabolomics signal) (replicate samples): 1.47E+08 (2×) and 1.27E+08
L-lysine level (metabolomics signal) (replicate samples): 1.47E+06 and 1.24E+06 and 1.45E+06
L-methionine level (metabolomics signal) (replicate samples): 1.56E+07 and 1.66E+07 and 1.27E+07
L-phenylalanine level (metabolomics signal) (replicate samples): 7.06E+06 and 6.50E+06 and 4.97E+06
L-proline level (metabolomics signal) (replicate samples): 6.39E+07 and 5.46E+07 and 5.96E+07
L-serine level (metabolomics signal) (replicate samples): 4.50E+06 and 4.60E+06 and 4.86E+06
L-threonine level (metabolomics signal) (replicate samples): 8.82E+06 and 8.15E+06 and 8.77E+06
L-tryptophan level (metabolomics signal) (replicate samples): 1.85E+06 and 1.63E+06 and 1.27E+06
L-tyrosine level (metabolomics signal) (replicate samples): 2.13E+07 and 2.30E+07 and 1.69E+07
L-valine level (metabolomics signal) (replicate samples): 1.59E+08 and 1.62E+08 and 1.47E+08
dCMP level (metabolomics signal) (replicate samples): 1.62E+04 and 1.66E+04 and 1.35E+04
dTMP level (metabolomics signal) (replicate samples): 1.10E+06 and 1.20E+06 and 9.63E+05
glycine level (metabolomics signal) (replicate samples): 1.51E+06 and 1.66E+06 and 1.67E+06
N-Acyl-D-aspartate (C06380) metabolite signal [1]: 6.16E+04 and 5.50E+04 and 5.26E+04
Poly-gamma-D-glutamate (C05723) metabolite signal [1]: 4.45E+07 and 4.25E+07 and 4.46E+07
D-Ribitol 5-phosphate (C01068) metabolite signal [2]: 1.15E+04 and 2.30E+04 and 2.25E+04
D-glucono-1,5-lactone (C00198) metabolite signal [2]: 2.58E+05 and 2.64E+05 and 3.28E+05
L-Noradrenaline (C00547) metabolite signal [2]: 2.02E+04 and 2.76E+04 and 1.70E+04
Oxalosuccinate (C05379) metabolite signal [2]: 8.49E+04 and 8.94E+04 and 8.00E+04
Pyridoxamine (C00534) metabolite signal [2]: 9.67E+03 and 8.58E+03 and 9.61E+03
Thioredoxin disulfide (C00343) metabolite signal [2]: 2.29E+04 and 2.69E+04 and 2.77E+04
1-4-beta-D-Xylan (metabolite signal) [3]: 1.64E+05 and 1.40E+05 and 1.93E+05
2-Hydroxyglutarate/Citramalate (C02630) metabolite signal [3]: 7.84E+04 and 5.75E+04 and 5.66E+04
5-6-Dihydrothymine (C00906) metabolite signal [3]: 2.80E+05 and 2.87E+05 and 2.28E+05
5-10-Methenyltetrahydrofolate (metabolite signal) [3]: 1.54E+05 and 1.37E+05 and 1.05E+05
5-Hydroxyisourate (C11821) metabolite signal [3]: 4.81E+06 and 4.49E+06 and 3.27E+06
5-L-Glutamyl-taurine (metabolite signal) [3]: 1.49E+05 and 1.28E+05 and 1.35E+05
5-Oxoproline (metabolite signal) [3]: 8.83E+05 and 1.09E+06 and 7.57E+05
(S)(+)-Allantoin (C02350) metabolite signal [3]: 7.40E+03 and 8.26E+03 and 9.04E+03
Allantoate (C00499) metabolite signal [3]: 5.78E+05 and 5.92E+05 and 8.52E+05
Ascorbate (metabolite signal) [3]: 7.64E+04 and 9.21E+04 and 9.25E+04
CMP-N-acetylneuraminate (metabolite signal) [3]: 2.55E+04 and 6.91E+03 and 6.08E+03
Carnosine (metabolite signal) [3]: 1.46E+05 and 1.52E+05 and 1.15E+05
Citrate (C00158) metabolite signal [3]: 2.76E+04 and 1.91E+04 and 1.57E+04
Creatine (metabolite signal) [3]: 1.37E+08 and 1.42E+08 and 1.27E+08
Creatinine (metabolite signal) [3]: 2.18E+06 and 2.32E+06 and 1.85E+06
Cys-Gly (metabolite signal) [3]: 7.81E+05 and 5.57E+05 and 7.70E+05
D-Glucosamine (metabolite signal) [3]: 3.33E+05 and 2.53E+05 and 2.71E+05
D-Glucose (C00031) metabolite signal [3]: 3.99E+06 and 4.57E+06 and 4.90E+06
D-Ribose (C00121) metabolite signal [3]: 1.11E+05 and 8.97E+04 and 8.43E+04
Dehydroascorbate (metabolite signal) [3]: 3.57E+04 and 4.39E+04 and 4.65E+04
Dihydrofolate (metabolite signal) [3]: 1.44E+06 and 1.74E+06 and 1.87E+06
Dimethylglycine (metabolite signal) [3]: 6.87E+05 and 6.86E+05 and 5.98E+05
Diphosphate (C00013) metabolite signal [3]: 2.84E+04 and 3.52E+04 and 3.86E+04
Fumarate (C00122) metabolite signal [3]: 9.00E+04 and 7.84E+04 and 7.19E+04
Glutathione (C00051) metabolite signal [3]: 4.59E+07 and 3.87E+07 and 4.33E+07
Glutathione disulfide (metabolite signal) [3]: 3.00E+05 and 9.38E+04 and 7.81E+04
Hypoxanthine (C00262) metabolite signal [3]: 7.14E+03 and 5.93E+03 and 0.00E+00
IMP (C00130) metabolite signal [3]: 4.51E+04 and 3.74E+04 and 4.61E+04
Inosine (C00294) metabolite signal [3]: 6.84E+04 and 6.73E+04 and 4.20E+04
L-Citrulline (metabolite signal) [3]: 2.71E+06 and 3.04E+06 and 2.48E+06
L-Homoserine (metabolite signal) [3]: 2.62E+05 and 3.31E+05 and 2.39E+05
Lactate (C01432) metabolite signal [3]: 1.75E+07 and 2.07E+07 and 1.43E+07
Malate (C00149) metabolite signal [3]: 1.61E+05 and 9.39E+04 and 7.61E+04
Mannitol (C00392) metabolite signal [3]: 1.83E+05 and 1.22E+05 and 1.51E+05
N-Acetylneuraminate (metabolite signal) [3]: 1.66E+04 and 1.46E+04 and 8.13E+03
N-Glycoloyl-neuraminate (metabolite signal) [3]: 7.64E+04 and 8.68E+04 and 1.14E+05
NAD+ (C00003) metabolite signal [3]: 5.29E+04 and 5.95E+04 and 9.85E+04
Nicotinamide (C00153) metabolite signal [3]: 2.02E+07 and 2.16E+07 and 1.82E+07
Ornithine (metabolite signal) [3]: 1.75E+06 and 1.63E+06 and 1.64E+06
Oxaloacetate (C00036) metabolite signal [3]: 3.72E+04 and 4.43E+04 and 3.47E+04
Phosphoserine (metabolite signal) [3]: 2.32E+04 and 2.57E+04 and 1.04E+04
Putrescine (metabolite signal) [3]: 4.24E+04 and 2.70E+04 and 3.11E+04
Pyridoxal (C00250) metabolite signal [3]: 4.26E+04 and 5.24E+04 and 7.64E+04
Pyruvate (C00022) metabolite signal [3]: 2.17E+06 (2×) and 1.35E+06
S-Glutathionyl-L-cysteine (metabolite signal) [3]: 2.24E+05 and 8.00E+04 and 6.92E+04
Sedoheptulose 1-phosphate (C06222) metabolite signal [3]: 2.39E+04 and 1.32E+04 and 9.55E+03
Spermidine (metabolite signal) [3]: 6.66E+06 and 5.53E+06 and 5.68E+06
Spermine (metabolite signal) [3]: 8.48E+06 and 7.61E+06 and 6.89E+06
Succinate (C00042) metabolite signal [3]: 3.87E+04 and 5.97E+04 and 7.05E+04
Thymidine (C00214) metabolite signal [3]: 1.24E+04 and 9.43E+03 and 3.23E+03
UDP (C00015) metabolite signal [3]: 8.83E+04 and 9.94E+04 and 8.18E+04
UDP-N-acetyl-D-glucosamine (metabolite signal) [3]: 8.06E+03 and 2.61E+03 and 5.41E+03
UDP-glucose (C00029) metabolite signal [3]: 9.76E+03 and 1.91E+03 and 5.75E+03
Urate (C00366) metabolite signal [3]: 3.58E+04 and 2.84E+04 and 2.03E+04
Xanthine (C00385) metabolite signal [3]: 7.82E+04 and 7.20E+04 and 8.31E+04
alpha-D-Glucosamine 1-phosphate (metabolite signal) [3]: 9.63E+05 and 8.22E+05 and 5.48E+05
alpha-D-Ribose 1-phosphate (C00620) metabolite signal [3]: 4.34E+04 and 2.92E+04 and 1.97E+04
gamma-Glutamyl-gamma-aminobutyrate (metabolite signal) [3]: 5.87E+04 and 5.26E+04 and 3.36E+04
gamma-L-Glutamyl-D-alanine (metabolite signal) [3]: 4.70E+04 and 4.49E+04 and 2.74E+04
gamma-L-Glutamyl-L-cysteine (metabolite signal) [3]: 4.20E+04 and 3.03E+04 and 3.96E+04
